Laboratory results taken from PubChem BioAssay (NCI).
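GI50 marks 50% less growth. At the TGI there is no net growth.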

Tests used:
Test in all cases: NCI tumour cell line growth inhibition, 384-well format
HOP-62 NSCLC = test system: HOP-62 NSCLC
IGROV1 ovarian = test system: IGROV1 ovarian
NCI-H23 lung = test system: NCI-H23 lung
SN12C renal = test system: SN12C renal
MOLT-4 leukemia = test system: MOLT-4 leukemia
NCI-H522 lung = test system: NCI-H522 lung
M14 melanoma = test system: M14 melanoma
RXF 393 renal = test system: RXF 393 renal
MDA-MB-468 breast = test system: MDA-MB-468 breast
SK-MEL-5 melanoma = test system: SK-MEL-5 melanoma
EKVX NSCLC = test system: EKVX NSCLC
HCT-116 colon = test system: HCT-116 colon
MDA-MB-435 melanoma = test system: MDA-MB-435 melanoma
HT29 colon = test system: HT29 colon
KM12 colon = test system: KM12 colon
TK-10 renal = test system: TK-10 renal
NCI-H322M lung = test system: NCI-H322M lung
OVCAR-5 ovarian = test system: OVCAR-5 ovarian
NCI-H226 lung = test system: NCI-H226 lung
PC-3 prostate = test system: PC-3 prostate
HL-60(TB) leukemia = test system: HL-60(TB) leukemia
NCI-H460 NSCLC = test system: NCI-H460 NSCLC
OVCAR-3 ovarian = test system: OVCAR-3 ovarian
HOP-92 NSCLC = test system: HOP-92 NSCLC
MALME-3M melanoma = test system: MALME-3M melanoma
786-0 renal = test system: 786-0 renal
SNB-19 CNS = test system: SNB-19 CNS
CCRF-CEM leukemia = test system: CCRF-CEM leukemia
COLO 205 colon = test system: COLO 205 colon
MCF7 breast = test system: MCF7 breast
T-47D breast = test system: T-47D breast
SF-539 CNS = test system: SF-539 CNS
RPMI-8226 leukemia = test system: RPMI-8226 leukemia
SK-OV-3 ovarian = test system: SK-OV-3 ovarian
U251 glioblastoma = test system: U251 glioblastoma
OVCAR-4 ovarian = test system: OVCAR-4 ovarian
LOX IMVI melanoma = test system: LOX IMVI melanoma
K-562 leukemia = test system: K-562 leukemia
BT-549 breast = test system: BT-549 breast
UACC-257 melanoma = test system: UACC-257 melanoma
A549 NSCLC = test system: A549 NSCLC
SF-268 CNS = test system: SF-268 CNS
ACHN renal = test system: ACHN renal
HCT-15 colon = test system: HCT-15 colon
CAKI-1 renal = test system: CAKI-1 renal
HCC-2998 colon = test system: HCC-2998 colon
UO-31 renal = test system: UO-31 renal
SNB-75 CNS = test system: SNB-75 CNS
SR leukemia = test system: SR leukemia
SK-MEL-28 melanoma = test system: SK-MEL-28 melanoma
HS 578T breast = test system: HS 578T breast
OVCAR-8 ovarian = test system: OVCAR-8 ovarian
NCI/ADR-RES ovarian = test system: NCI/ADR-RES ovarian
SW-620 colon = test system: SW-620 colon
SF-295 CNS = test system: SF-295 CNS
DU-145 prostate = test system: DU-145 prostate
A498 renal = test system: A498 renal
MDA-MB-231 breast = test system: MDA-MB-231 breast

COC[C@H]1OC(=O)c2coc3c2[C@@]1(C)C1=C(C3=O)[C@@H]2CCC(=O)[C@@]2(C)C[C@H]1OC(C)=O
GI50 (HOP-62 NSCLC): 10.9 µM
TGI (HOP-62 NSCLC): > 100 µM
GI50 (IGROV1 ovarian): 1.18 µM
TGI (IGROV1 ovarian): 11.3 µM
GI50 (NCI-H23 lung): 22.1 µM
TGI (NCI-H23 lung): > 100 µM
GI50 (SN12C renal): 11 µM
TGI (SN12C renal): > 100 µM
GI50 (MOLT-4 leukemia): 2.3 µM
TGI (MOLT-4 leukemia): 13.6 µM
GI50 (NCI-H522 lung): 20.3 µM
TGI (NCI-H522 lung): > 100 µM
GI50 (M14 melanoma): 18.2 µM
TGI (M14 melanoma): > 100 µM
GI50 (RXF 393 renal): 0.281 µM
TGI (RXF 393 renal): 1.82 µM
GI50 (MDA-MB-468 breast): 1.46 µM
TGI (MDA-MB-468 breast): 7.84 µM
GI50 (SK-MEL-5 melanoma): 4.21 µM
TGI (SK-MEL-5 melanoma): 27.9 µM
GI50 (EKVX NSCLC): 5.6 µM
TGI (EKVX NSCLC): > 100 µM
GI50 (HCT-116 colon): 16.8 µM
TGI (HCT-116 colon): > 100 µM
GI50 (MDA-MB-435 melanoma): 24.7 µM
TGI (MDA-MB-435 melanoma): > 100 µM
GI50 (HT29 colon): 7.88 µM
TGI (HT29 colon): > 100 µM
GI50 (KM12 colon): 15.4 µM
TGI (KM12 colon): > 100 µM
GI50 (TK-10 renal): 12 µM
TGI (TK-10 renal): > 100 µM
GI50 (NCI-H322M lung): 6.91 µM
TGI (NCI-H322M lung): > 100 µM
GI50 (OVCAR-5 ovarian): 15.4 µM
TGI (OVCAR-5 ovarian): > 100 µM
GI50 (NCI-H226 lung): 12.5 µM
TGI (NCI-H226 lung): > 100 µM
GI50 (PC-3 prostate): 1.44 µM
TGI (PC-3 prostate): > 100 µM
GI50 (HL-60(TB) leukemia): 0.975 µM
TGI (HL-60(TB) leukemia): 2.74 µM
GI50 (NCI-H460 NSCLC): 7.17 µM
TGI (NCI-H460 NSCLC): > 100 µM
GI50 (OVCAR-3 ovarian): 2.74 µM
TGI (OVCAR-3 ovarian): 32.1 µM
GI50 (HOP-92 NSCLC): 6.12 µM
TGI (HOP-92 NSCLC): > 100 µM
GI50 (MALME-3M melanoma): 3.9 µM
TGI (MALME-3M melanoma): 42.4 µM
GI50 ([…]-0 renal): 26.3 µM
TGI (786-0 renal): > 100 µM
GI50 (SNB-19 CNS): 50.2 µM
TGI (SNB-19 CNS): > 100 µM
GI50 (CCRF-CEM leukemia): 7.05 µM
TGI (CCRF-CEM leukemia): 30.6 µM
GI50 (COLO 205 colon): 26.7 µM
TGI (COLO 205 colon): > 100 µM
GI50 (MCF7 breast): 1.34 µM
TGI (MCF7 breast): > 100 µM
GI50 (T-47D breast): 4.32 µM
TGI (T-47D breast): 60.3 µM
GI50 (SF-539 CNS): 22.5 µM
TGI (SF-539 CNS): > 100 µM
GI50 (RPMI-8226 leukemia): 2.39 µM
TGI (RPMI-8226 leukemia): 9.89 µM
GI50 (SK-OV-3 ovarian): 8.24 µM
TGI (SK-OV-3 ovarian): > 100 µM
GI50 (U251 glioblastoma): 67.4 µM
TGI (U251 glioblastoma): > 100 µM
GI50 (OVCAR-4 ovarian): 2.36 µM
TGI (OVCAR-4 ovarian): > 100 µM
GI50 (LOX IMVI melanoma): 21.1 µM
TGI (LOX IMVI melanoma): > 100 µM
GI50 (K-562 leukemia): 71.9 µM
TGI (K-562 leukemia): > 100 µM
GI50 (BT-549 breast): 3.31 µM
TGI (BT-549 breast): 42.8 µM
GI50 (UACC-257 melanoma): 13.6 µM
TGI (UACC-257 melanoma): > 100 µM
GI50 (A549 NSCLC): 7.24 µM
TGI (A549 NSCLC): > 100 µM
GI50 (SF-268 CNS): 4.4 µM
TGI (SF-268 CNS): 67.9 µM
GI50 (ACHN renal): 7.99 µM
TGI (ACHN renal): > 100 µM
GI50 (HCT-15 colon): 11.4 µM
TGI (HCT-15 colon): > 100 µM
GI50 (CAKI-1 renal): 7.96 µM
TGI (CAKI-1 renal): > 100 µM
GI50 (HCC-2998 colon): 3.91 µM
TGI (HCC-2998 colon): 44.6 µM
GI50 (UO-31 renal): 3.33 µM
TGI (UO-31 renal): > 100 µM
GI50 (SNB-75 CNS): 1.34 µM
TGI (SNB-75 CNS): 11.7 µM
GI50 (SR leukemia): 1.28 µM
TGI (SR leukemia): 4.28 µM
GI50 (SK-MEL-28 melanoma): 9.73 µM
TGI (SK-MEL-28 melanoma): > 100 µM
GI50 (HS 578T breast): 1.6 µM
TGI (HS 578T breast): 12.8 µM
GI50 (OVCAR-8 ovarian): 14.7 µM
TGI (OVCAR-8 ovarian): > 100 µM
GI50 (NCI/ADR-RES ovarian): 25 µM
TGI (NCI/ADR-RES ovarian): > 100 µM
GI50 (SW-620 colon): 28.8 µM
TGI (SW-620 colon): > 100 µM
GI50 (SF-295 CNS): 7.25 µM
TGI (SF-295 CNS): > 100 µM
GI50 (DU-145 prostate): 25.2 µM
TGI (DU-145 prostate): > 100 µM
GI50 (A498 renal): 4.52 µM
TGI (A498 renal): 54.3 µM
GI50 (MDA-MB-231 breast): 17.6 µM
TGI (MDA-MB-231 breast): > 100 µM
